The experiment addresses T1, human NK1 receptor (Homo sapiens, UniProt P25103).
T1 construct: expressed in transfected cells; host or cells: CHO cells infected with the Semliki virus expression system; membrane suspension used
In words: [3H]substance P binding at human NK1 receptors in CHO cells. To be noted: affinity to the NK-1 receptor; [3H]substance P 0.6 nM displacement, CHO cell membranes, 60 min at room temperature. Here is the method: The affinity of test compounds for the NK1 receptor was evaluated at human NK1 receptors in CHO cells infected with the human NK1 receptor (using the Semliki virus expression system) and radiolabelled with [^3H]substance P (final concentration 0.6 nM). Binding assays were performed in HEPES buffer (50 mM, pH 7.4) containing BSA (0.04%) leupeptin (8 μg/ml), MnCl2 (3 mM) and phosphoramidon (2 μM). Binding assays consisted of 250 μl of membrane suspension (1.25×10^5 cells/assay tube), […] of buffer of displacing agent and 125 μl of [^3H]substance P. Displacement curves were determined with at least seven concentrations of the compound. The assay tubes were incubated for 60 min at room temperature after which time the tube contents were rapidly filtered under vacuum through GF/C filters presoaked for 60 min with PEI (0.3%) with 2×2 ml washes of HEPES buffer (50 mM, pH 7.4). The radioactivity retained on the filters was measured by scintillation counting. All assays were performed in triplicate in at least 2 separate experiments.

T1 sequence (P25103 whole entry): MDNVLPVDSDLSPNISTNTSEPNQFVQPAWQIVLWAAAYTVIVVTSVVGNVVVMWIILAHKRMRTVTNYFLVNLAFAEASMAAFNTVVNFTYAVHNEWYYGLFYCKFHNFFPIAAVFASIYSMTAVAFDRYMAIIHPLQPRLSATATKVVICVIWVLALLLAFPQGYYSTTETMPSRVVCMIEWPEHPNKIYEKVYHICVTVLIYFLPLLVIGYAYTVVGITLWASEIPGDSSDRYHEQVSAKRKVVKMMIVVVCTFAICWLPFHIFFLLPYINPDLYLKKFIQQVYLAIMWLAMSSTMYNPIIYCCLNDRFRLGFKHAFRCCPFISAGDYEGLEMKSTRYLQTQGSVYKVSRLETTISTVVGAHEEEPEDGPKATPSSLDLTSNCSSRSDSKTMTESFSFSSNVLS

With `O=C1NCC(c2cccc(Cl)c2)C2(CCN(C(=O)c3cc(C(F)(F)F)cc(C(F)(F)F)c3)CC2)O1` (racemic) [Example 1, (5RS)-9-(3,5-bis-trifluoromethyl-benzoyl)-5-(3-chloro-phenyl)-1-oxa-3,9-diaza-spiro[5.5]undecan-2-one], the Ki is 5.13 nM. For `O=C1NCC(c2ccc(F)c(F)c2)C2(CCN(C(=O)c3cc(C(F)(F)F)cc(C(F)(F)F)c3)CC2)O1` (racemic) [Example 2, (5RS)-9-(3,5-bis-trifluoromethyl-benzoyl)-5-(3,4-difluoro-phenyl)-1-oxa-3,9-diaza-spiro[5.5]undecan-2-one] the value was 1.7 nM; for `O=C1NCC(c2ccc(Cl)c(Cl)c2)C2(CCN(C(=O)c3cc(C(F)(F)F)cc(C(F)(F)F)c3)CC2)O1` (racemic) [Example 3, (5RS)-9-(3,5-bis-trifluoromethyl-benzoyl)-5-(3,4-dichloro-phenyl)-1-oxa-3,9-diaza-spiro[5.5]undecan-2-one], 2.63 nM. For `O=C1NCC(c2ccccc2)C2(CCN(C(=O)c3cc(C(F)(F)F)cc(C(F)(F)F)c3)CC2)O1` (racemic) [Example 4, (5RS)-9-(3,5-bis-trifluoromethyl-benzoyl)-5-phenyl-1-oxa-3,9-diaza-spiro[5.5]undecan-2-one] the value was 5.13 nM; for `O=C1NCC(c2cccc(F)c2F)C2(CCN(C(=O)c3cc(C(F)(F)F)cc(C(F)(F)F)c3)CC2)O1` (racemic) [Example 5, (5RS)-9-(3,5-bis-trifluoromethyl-benzoyl)-5-(2,3-difluoro-phenyl)-1-oxa-3,9-diaza-spiro[5.5]undecan-2-one], 8.51 nM.

`O=C1NCC(c2cc(F)ccc2F)C2(CCN(C(=O)c3cc(C(F)(F)F)cc(C(F)(F)F)c3)CC2)O1` (racemic) [Example 6, (5RS)-9-(3,5-bis-trifluoromethyl-benzoyl)-5-(2,5-difluoro-phenyl)-1-oxa-3,9-diaza-spiro[5.5]undecan-2-one] had a Ki of 9.77 nM. Consider `Cc1ccccc1C1CNC(=O)OC12CCN(C(=O)c1cc(C(F)(F)F)cc(C(F)(F)F)c1)CC2` (racemic) [Example 7, (5RS)-9-(3,5-bis-trifluoromethyl-benzoyl)-5-o-tolyl-1-oxa-3,9-diaza-spiro[5.5]undecan-2-one], for which the Ki is 10.7 nM. Take `O=C1NCC(c2ccc(Cl)cc2)C2(CCN(C(=O)c3cc(C(F)(F)F)cc(C(F)(F)F)c3)CC2)O1` (racemic) [Example 8, (5RS)-9-(3,5-bis-trifluoromethyl-benzoyl)-5-(4-chloro-phenyl)-1-oxa-3,9-diaza-spiro[5.5]undecan-2-one]: affinity was put at a Ki of 11 nM. As for `Cc1ccc(C2CNC(=O)OC23CCN(C(=O)c2cc(C(F)(F)F)cc(C(F)(F)F)c2)CC3)cc1C` (racemic) [Example 9, (5RS)-9-(3,5-bis-trifluoromethyl-benzoyl)-5-(3,4-dimethyl-phenyl)-1-oxa-3,9-diaza-spiro[5.5]undecan-2-one], the figure is 12.6 nM; as for `COc1cccc(C2CNC(=O)OC23CCN(C(=O)c2cc(C(F)(F)F)cc(C(F)(F)F)c2)CC3)c1` (racemic) [Example 10, (5RS)-9-(3,5-bis-trifluoromethyl-benzoyl)-5-(3-methoxy-phenyl)-1-oxa-3,9-diaza-spiro[5.5]undecan-2-one], 14.8 nM. In turn, `O=C1NCC(c2ccccc2Cl)C2(CCN(C(=O)c3cc(C(F)(F)F)cc(C(F)(F)F)c3)CC2)O1` (racemic) [Example 11, (5RS)-9-(3,5-bis-trifluoromethyl-benzoyl)-5-(2-chloro-phenyl)-1-oxa-3,9-diaza-spiro[5.5]undecan-2-one] had a Ki of 23.4 nM. Regarding `CN1CCC(N2CC(c3ccccc3)C3(CCN(C(=O)c4cc(C(F)(F)F)cc(C(F)(F)F)c4)CC3)OC2=O)CC1` (racemic) [Example 12, (5RS)-9-(3,5-bis-trifluoromethyl-benzoyl)-3-(1-methyl-piperidin-4-yl)-5-phenyl-1-oxa-3,9-diaza-spiro[5.5]undecan-2-one], the Ki is 3.89 nM.
